{"source": "patent US20030215896A1", "about": "“Gamma secretase substrates and in vitro assays” (priority 2003, published 2003)", "key": {"[1]": {"system": "γ-secretase (HeLa cell membranes)", "test": "In vitro γ-secretase assay with HeLa cell membranes and SEQ. ID. NO. 9 substrate in presence of detergent, ECL", "assay_type": "biochemical, human", "details": "detergent 0.75%"}, "[2]": {"system": "γ-secretase (HeLa cell membranes)", "test": "Extraction of γ-secretase activity from HeLa cell membranes with CHAPSO detergent", "assay_type": "biochemical, human", "method": "HeLa S3 cells from American Type Culture Collection (Rockville, Md.) were grown in bioreactors (Analytical Biological Services; Wilmington, Del.) in 90% DMEM, 10% fetal bovine serum, 2 mM glutamine and 100 μg/ml each of penicillin and streptomycin. […] The cells were broken by single-pass through a French Press (Spectronic Instruments, Rochester, N.Y.). Cell debris and nuclei were removed by centrifugation at 800×g for 10 minutes. The supernatant solutions were centrifuged at 100,000×g for 60 minutes. The ensuing pellets were resuspended in buffer A and the centrifugation was repeated. The final membrane pellets were resuspended in buffer A to yield a protein concentration of approximately 12 mg/ml. All procedures were performed at 4° C. The membranes were stored at −70° C. […] The supernatant solutions (solubilized fractions) and the pellets (membrane fractions) were then assayed for γ-secretase activity with the SEQ. ID. NO. 9 substrate. […] The ensuing supernatant solution provides “solubilized γ-secretase”. […] In vitro assays measuring γ-secretase activity were performed using cell membranes or as “solubilized γ-secretase”. In one reaction, SEQ. ID. […] ID. NO. 9 substrate at 37° C. in the presence of detergent in buffer B."}, "[3]": {"system": "γ-secretase (HeLa cell membranes)", "test": "In vitro γ-secretase assay with HeLa cell membranes and SEQ. ID. NO. 9 substrate in presence of detergent, ECL", "assay_type": "biochemical, human", "details": "for Effect of detergent on in vitro γ-secretase cleavage of substrate: SEQ. ID. NO. 9 substrate", "method": "HeLa S3 cells from American Type Culture Collection (Rockville, Md.) were grown in bioreactors (Analytical Biological Services; Wilmington, Del.) in 90% DMEM, 10% fetal bovine serum, 2 mM glutamine and 100 μg/ml each of penicillin and streptomycin. Frozen HeLa S3 cells were resuspended in buffer A (50 mM MES, pH 6.0, 5 mM MgCl2, 5 mM CaCl2, 150 mM KCl) containing “complete” protease inhibitor cocktail (Boehringer Mannheim, Indianapolis, Ind.). The cells were broken by single-pass through a French Press (Spectronic Instruments, Rochester, N.Y.). Cell debris and nuclei were removed by centrifugation at 800×g for 10 minutes. The supernatant solutions were centrifuged at 100,000×g for 60 minutes. The ensuing pellets were resuspended in buffer A and the centrifugation was repeated. The final membrane pellets were resuspended in buffer A to yield a protein concentration of approximately 12 mg/ml. All procedures were performed at 4° C. The membranes were stored at −70° C.\nIn vitro assays measuring γ-secretase activity were performed using cell membranes or as “solubilized γ-secretase”. In one reaction, SEQ. ID. NO. 9 substrate (1.7 μM) was incubated with cell membranes (0.5 mg/ml) in presence of detergent in buffer B (50 mM PIPES, pH 7.0, 5 mM MgCl2, 5 mM CaCl2, 150 mM KCl) at 37° C. In another reaction, supernatant solution from CHAPSO-extracted HeLa cell membranes (“solubilized γ-secretase”) was incubated with SEQ. ID. NO. 9 substrate at 37° C. in the presence of detergent in buffer B. Generally, 0.25% CHAPSO was provided as the detergent. The reactions were stopped by adding RIPA (150 mM NaCl, 1.0% NP-40, 0.5% DOC, 0.1% SDS, 50 mM Tris HCl, pH 8.0).\nThe samples were centrifuged and the supernatant solutions were assayed for the Aβ peptides by ECL. The Aβ40- and Aβ42-related products from γ-secretase-mediated processing of SEQ. ID. NO.\nSEQ. ID. NO. 9 substrate (1.7 μM) was incubated with cell membranes (0.5 mg/ml) in presence of CHAPSO, CHAPS or Triton X-100 (0, 0.125, 0.25, 0.5, or 1%) in buffer B at 37° C."}, "γ-secretase": {"target": "γ-secretase (Cricetulus griseus, UniProt G3HNF2)", "test": "Radiolabeling pulse-chase of CHO/APP695 cells, 4G8 immunoprecipitation, SDS-PAGE", "assay_type": "cell-based, Chinese hamster", "details": "1 μM, data not shown", "method": "The effect of a γ-secretase inhibitor on γ-secretase activity was measured using Chinese hamster ovary fibroblasts that stably express APP695 (CHO/APP695, provided by Dr. S. Sisodia (University of Chicago, Chicago, Ill.)). CHO/APP695 were grown in 90% DMEM, 10% fetal bovine serum, 2 mM glutamine, 100 μg/ml each of penicillin and streptomycin, and 0.2 mg/ml G418. CHO/APP695 cells were seeded in 96-well dishes at 2×10^4 cells/well. Aβ-peptide formation was detected by either ECL or using radiolabeling.\nFor the radiolabeling experiments, CHO/APP695 cells (in 100 mm dishes) were grown to 70% confluency in complete media. Afterwards, these cells were cultured±1 μM L-685,458 for 24 hours, switched to Met-free medium (±1 μM L-685,458) for 20 minutes, pulsed with 1 mCi/ml of S^35-Met (Amersham Life Sciences, Inc, Arlington Heights, Ill.) in Met-free medium (±1 μM L-685,458) for 2 hours, and subsequently chased in complete medium (±1 μM L-685,458) for 45 minutes. The cells were washed with Hanks balanced salt solution and lysed with 1 ml of RIPA. The insoluble residue was removed by centrifugation. The 4G8 antibody (final concentration, 2 μg/ml) was added to the supernatant fractions. The samples were gently rotated overnight at 4° C. Protein G-agarose beads (Pharmacia Biotech, Piscataway, N.J.) were added the next day, the samples were rotated for an additional 2 hours and then centrifuged. […]"}, "[4]": {"target": "T1, solubilized γ-secretase (CHAPSO-extracted HeLa cell membranes) (Homo sapiens, UniProt P49768)", "T1 construct": "ID; NO; 9 su", "test": "In vitro γ-secretase assay with \"solubilized γ-secretase\" and SEQ. ID. NO. 9 substrate, ECL", "assay_type": "biochemical", "details": "assaying for Aβ40 cleavage, FIG. 2A; read-out: Apparent Km value of solubilized γ-secretase for substrate", "method": "(§1) The ensuing supernatant solution provides “solubilized γ-secretase”.\n(§2) In vitro assays measuring γ-secretase activity were performed using cell membranes or as “solubilized γ-secretase”. In one reaction, SEQ. ID. NO. […] ID. NO."}, "[5]": {"system": "solubilized γ-secretase (CHAPSO-extracted HeLa cell membranes)", "test": "In vitro γ-secretase assay with \"solubilized γ-secretase\" and SEQ. ID. NO. 9 substrate, ECL", "assay_type": "biochemical, human", "details": "solubilized γ-secretase", "method": "as §1, §2"}, "[6]": {"target": "solubilized γ-secretase (supernatant solution from 1% CHAPSO-extracted HeLa S3 cell membranes)", "test": "cell-based or functional assay"}}, "data": [{"compound": "C[C@H](CCC(=O)NCCC[N+](C)(C)CC(O)CS(=O)(=O)[O-])[C@H]1CC[C@H]2[C@@H]3[C@H](O)C[C@@H]4C[C@H](O)CC[C@]4(C)[C@H]3C[C@H](O)[C@]12C", "note": "(some centres unmarked) [CHAPSO]", "values": [{"measurement": "M-Aβ 40 production", "setting": "[1]", "value": 0.07, "unit": "ECL signal × 10^−6"}, {"measurement": "% of total γ-secretase activity in Membranes fraction", "setting": "[2]; CHAPSO 0.25%", "value": 97, "unit": "%"}, {"measurement": "% of total γ-secretase activity in Solubilized fraction", "setting": "[2]; CHAPSO 0.25%", "value": 3, "unit": "%"}, {"measurement": "% of total γ-secretase activity in Membranes fraction", "setting": "[2]; CHAPSO 0.50%", "value": 65, "unit": "%"}, {"measurement": "% of total γ-secretase activity in Solubilized fraction", "setting": "[2]; CHAPSO 0.50%", "value": 35, "unit": "%"}, {"measurement": "% of total γ-secretase activity in Membranes fraction", "setting": "[2]; CHAPSO 1.00%", "value": 51, "unit": "%"}, {"measurement": "% of total γ-secretase activity in Membranes fraction", "setting": "[2]; CHAPSO 2.0%", "value": 50, "unit": "%"}, {"measurement": "% of total γ-secretase activity in Solubilized fraction", "setting": "[2]; CHAPSO 2.0%", "value": 50, "unit": "%"}, {"measurement": "Detergent concentration giving optimal γ-secretase activity", "setting": "[3]; HeLa cell membranes", "value": 0.25, "unit": "%"}, {"measurement": "Effect of detergent on in vitro γ-secretase cleavage of substrate", "setting": "[3]; HeLa cell membranes", "value": "promotes cleavage at the γ-secretase scissile bond"}, {"measurement": "M-Aβ 40 production", "setting": "[3]; detergent 0.125%", "value": 2.2, "unit": "ECL signal × 10^−6"}, {"measurement": "M-Aβ 40 production", "setting": "[3]; detergent 0.25%", "value": 8.74, "unit": "ECL signal × 10^−6"}, {"measurement": "M-Aβ 40 production", "setting": "[3]; detergent 0.5%", "value": 1.22, "unit": "ECL signal × 10^−6"}, {"measurement": "M-Aβ 40 production", "setting": "[3]; detergent 1%", "value": 0.03, "unit": "ECL signal × 10^−6"}]}, {"compound": "C[C@H](CCC(=O)NCCC[N+](C)(C)CCCS(=O)(=O)[O-])[C@H]1CC[C@H]2[C@@H]3[C@H](O)C[C@@H]4C[C@H](O)CC[C@]4(C)[C@H]3C[C@H](O)[C@]12C", "note": "[CHAPS]", "values": [{"measurement": "M-Aβ 40 production", "setting": "[1]", "value": 0.04, "unit": "ECL signal × 10^−6"}, {"measurement": "Effect of detergent on in vitro γ-secretase cleavage of substrate", "setting": "[3]; HeLa cell membranes", "value": "promotes cleavage at the γ-secretase scissile bond"}, {"measurement": "M-Aβ 40 production", "setting": "[3]; detergent 0.125%", "value": 0.03, "unit": "ECL signal × 10^−6"}, {"measurement": "M-Aβ 40 production", "setting": "[3]; detergent 0.25%", "value": 3.21, "unit": "ECL signal × 10^−6"}, {"measurement": "M-Aβ 40 production", "setting": "[3]; detergent 0.5%", "value": 0.27, "unit": "ECL signal × 10^−6"}, {"measurement": "M-Aβ 40 production", "setting": "[3]; detergent 1%", "value": 0.03, "unit": "ECL signal × 10^−6"}]}, {"compound": "CC(C)C[C@H](NC(=O)[C@H](Cc1ccccc1)C[C@@H](O)[C@H](Cc1ccccc1)NC(=O)OC(C)(C)C)C(=O)N[C@@H](Cc1ccccc1)C(N)=O", "note": "[L-685,458]", "values": [{"measurement": "Intracellular accumulation of APP fragments (α-CTF, β-CTF)", "setting": "γ-secretase", "value": "intracellular accumulation of APP immunoreactive fragments that co-migrate with α-CTF and β-CTF"}]}, {"compound": "SEQ. ID. NO. 9 substrate: γ-secretase substrate: fusion protein of N-terminal Met, APP597-695 (β-CTF domain) and C-terminal Flag tag DYKDDDDK", "values": [{"measurement": "Km", "setting": "[4]", "value": "~1", "unit": "µM"}, {"measurement": "Aβ42/Aβ40 cleavage ratio", "setting": "[5]", "value": "approximately 0.1"}, {"measurement": "Aβ42/Aβ40 cleavage ratio", "setting": "[3]; intact membranes", "value": "approximately 0.1"}]}, {"compound": "Triton X-100", "values": [{"measurement": "M-Aβ 40 production", "setting": "[1]", "value": 0.02, "unit": "ECL signal × 10^−6"}, {"measurement": "Effect of detergent on in vitro γ-secretase cleavage of substrate", "setting": "[3]; HeLa cell membranes", "value": "fails to potentiate in vitro γ-secretase activity"}, {"measurement": "M-Aβ 40 production", "setting": "[3]; detergent 0.125%", "value": 0.02, "unit": "ECL signal × 10^−6"}, {"measurement": "M-Aβ 40 production", "setting": "[3]; detergent 0.25%", "value": 0.02, "unit": "ECL signal × 10^−6"}, {"measurement": "M-Aβ 40 production", "setting": "[3]; detergent 0.5%", "value": 0.02, "unit": "ECL signal × 10^−6"}, {"measurement": "M-Aβ 40 production", "setting": "[3]; detergent 1%", "value": 0.02, "unit": "ECL signal × 10^−6"}]}, {"compound": "pepstatin (peptide)", "values": [{"measurement": "IC50 for inhibiting the generation of the Aβ40 terminus (in vitro γ-secretase assay, ECL)", "setting": "[6]", "value": 4, "unit": "µM"}, {"measurement": "IC50 for inhibiting the generation of the Aβ42 terminus (in vitro γ-secretase assay, ECL)", "setting": "[6]", "value": 5.9, "unit": "µM"}]}]}
